Data taken from PMC4039110, “The histone demethylase JMJD1A induces cell migration and invasion by up-regulating the expression of the long noncoding RNA MALAT1” (Oncotarget, 2014).

Experiments:
BE(2)-C cells [1] = assay: Matrigel cell invasion assay; type: cell-based, human; settings: 67μM DMOG for 20 hours, invasion quantified 22 hours later, vs vehicle control
Experimental: BE(2)-C cells were transfected with siRNA or treated with JMJD1A inhibitors for 20 hours, and then detached and added onto BD Falcon Cell Culture Inserts coated with Matrigel inside BD BioCoat Matrigel Invasion Chambers (Becton Dickinson, Bedford, MA, USA). Cells invaded through Matrigel to the bottom side of the inserts were stained with toluidine blue, photographed under microscope and quantified.

BE(2)-C cells [2] = assay: Cell proliferation, Alamar blue assay, BE(2)-C; type: cell-based, human; settings: range of doses of DMOG, 72 hours
Experimental: Cell proliferation was examined with Alamar blue assays. Briefly, cells were plated into 96 well plates, transfected with various siRNAs or treated with different dosages of DMOG. Seventy-two hours later, cells were incubated with Alamar blue (Invitrogen) for 5 hours, and plates were then read on a micro-plate reader at 570/595 nm. Results were calculated according to the optical density absorbance units and expressed as percentage changes in cell numbers.

MALAT1 = assay: Real-time RT-PCR of MALAT1 RNA expression in BE(2)-C cells; type: cell-based, human; settings: 67μM DMOG, 48 hours, vs vehicle control
Description: Gene expression in tumor cells was examined by quantitative real-time RT-PCR as described previously. For the analysis of protein expression by immunoblot, cells were lysed, protein extracted and separated by gel electrophoresis. After western transfer, membranes were probed with mouse anti-N-Myc antibody (1:1000) (Santa Cruz Biotech, CA, USA) or rabbit anti-JMJD1A antibody (1:500) (Abcam, Cambridge, MA, USA), followed by horseradish peroxidase-conjugated anti-mouse (1:10000) or anti-rabbit (1:20000) antiserum (Santa Cruz Biotech). Protein bands were visualized with SuperSignal (Pierce, Rockford, IL, USA). The membranes were lastly re-probed with an anti-actin antibody (Sigma, St Louis, MO, USA) as loading controls.

BE(2)-C cells [3] = assay: Cell migration (wound healing) assay with Ibidi Culture Inserts; type: cell-based, human; settings: 67μM DMOG vs vehicle control
Experimental: Ibidi Culture Inserts (DKSH, Sydney, Australia) were placed in the center of 6 well plates. BE(2)-C cells were added into the wells outside the inserts. Sixteen hours later, the inserts were removed to create “wounds”. Photos of the “wounds” were taken under microscope, and the areas of the remaining “wounds” were measured and analyzed with Image J software (National Institutes of Health, USA).

JARID1A = JARID1A (Homo sapiens, UniProt P29375); assay: Formaldehyde dehydrogenase-coupled assay, JARID1A; type: biochemical; settings: in vitro; compared with JMJD1A
JARID1A, sequence (P29375 whole entry): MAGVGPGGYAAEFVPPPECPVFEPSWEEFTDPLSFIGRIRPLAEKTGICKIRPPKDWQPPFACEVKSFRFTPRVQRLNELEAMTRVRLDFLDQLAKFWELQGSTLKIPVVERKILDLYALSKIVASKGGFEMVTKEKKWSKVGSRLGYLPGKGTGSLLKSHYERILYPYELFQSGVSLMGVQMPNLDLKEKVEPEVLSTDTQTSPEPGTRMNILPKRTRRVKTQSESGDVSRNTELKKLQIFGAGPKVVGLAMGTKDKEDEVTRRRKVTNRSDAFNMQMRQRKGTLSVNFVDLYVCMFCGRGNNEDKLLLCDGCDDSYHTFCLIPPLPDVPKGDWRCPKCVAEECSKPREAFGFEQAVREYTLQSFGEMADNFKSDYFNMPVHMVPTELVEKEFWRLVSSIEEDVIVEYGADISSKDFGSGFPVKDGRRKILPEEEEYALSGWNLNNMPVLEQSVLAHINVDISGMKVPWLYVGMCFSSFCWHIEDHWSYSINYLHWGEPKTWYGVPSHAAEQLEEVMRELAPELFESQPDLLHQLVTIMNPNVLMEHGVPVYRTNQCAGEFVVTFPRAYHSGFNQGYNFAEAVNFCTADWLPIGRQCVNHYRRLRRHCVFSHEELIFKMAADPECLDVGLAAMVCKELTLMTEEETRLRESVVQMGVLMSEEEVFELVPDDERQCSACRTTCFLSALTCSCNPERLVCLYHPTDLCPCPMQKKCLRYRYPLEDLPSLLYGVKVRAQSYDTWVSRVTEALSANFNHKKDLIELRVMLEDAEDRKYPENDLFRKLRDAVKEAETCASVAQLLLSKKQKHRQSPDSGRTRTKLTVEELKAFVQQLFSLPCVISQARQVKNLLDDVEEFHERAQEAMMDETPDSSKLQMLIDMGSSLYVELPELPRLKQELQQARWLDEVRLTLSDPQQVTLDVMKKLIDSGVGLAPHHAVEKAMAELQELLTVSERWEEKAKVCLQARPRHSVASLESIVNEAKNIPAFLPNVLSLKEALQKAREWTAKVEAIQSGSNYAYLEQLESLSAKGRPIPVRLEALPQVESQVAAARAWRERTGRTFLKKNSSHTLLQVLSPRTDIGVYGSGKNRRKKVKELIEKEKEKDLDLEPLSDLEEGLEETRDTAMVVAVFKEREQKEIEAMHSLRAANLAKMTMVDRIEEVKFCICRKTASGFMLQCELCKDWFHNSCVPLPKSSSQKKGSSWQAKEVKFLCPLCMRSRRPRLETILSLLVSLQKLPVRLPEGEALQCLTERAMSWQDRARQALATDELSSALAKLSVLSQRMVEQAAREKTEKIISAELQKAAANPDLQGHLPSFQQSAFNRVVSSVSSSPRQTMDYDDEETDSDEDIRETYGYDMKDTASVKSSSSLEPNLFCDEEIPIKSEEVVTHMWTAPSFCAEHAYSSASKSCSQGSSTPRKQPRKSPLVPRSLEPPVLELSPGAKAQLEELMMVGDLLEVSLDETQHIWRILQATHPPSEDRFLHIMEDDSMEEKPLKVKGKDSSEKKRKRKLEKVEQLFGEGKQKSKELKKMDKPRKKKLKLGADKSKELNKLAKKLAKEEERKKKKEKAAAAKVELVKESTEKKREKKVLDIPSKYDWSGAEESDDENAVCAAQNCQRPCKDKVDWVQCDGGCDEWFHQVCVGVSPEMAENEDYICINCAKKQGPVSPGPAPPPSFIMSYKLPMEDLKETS

JMJD2A = target: T1, JMJD2A (Homo sapiens, UniProt O75164); assay: Histone demethylase inhibition assay, JMJD2A; type: biochemical; settings: in vitro; compared with JMJD1A
T1 sequence (O75164 1-1064): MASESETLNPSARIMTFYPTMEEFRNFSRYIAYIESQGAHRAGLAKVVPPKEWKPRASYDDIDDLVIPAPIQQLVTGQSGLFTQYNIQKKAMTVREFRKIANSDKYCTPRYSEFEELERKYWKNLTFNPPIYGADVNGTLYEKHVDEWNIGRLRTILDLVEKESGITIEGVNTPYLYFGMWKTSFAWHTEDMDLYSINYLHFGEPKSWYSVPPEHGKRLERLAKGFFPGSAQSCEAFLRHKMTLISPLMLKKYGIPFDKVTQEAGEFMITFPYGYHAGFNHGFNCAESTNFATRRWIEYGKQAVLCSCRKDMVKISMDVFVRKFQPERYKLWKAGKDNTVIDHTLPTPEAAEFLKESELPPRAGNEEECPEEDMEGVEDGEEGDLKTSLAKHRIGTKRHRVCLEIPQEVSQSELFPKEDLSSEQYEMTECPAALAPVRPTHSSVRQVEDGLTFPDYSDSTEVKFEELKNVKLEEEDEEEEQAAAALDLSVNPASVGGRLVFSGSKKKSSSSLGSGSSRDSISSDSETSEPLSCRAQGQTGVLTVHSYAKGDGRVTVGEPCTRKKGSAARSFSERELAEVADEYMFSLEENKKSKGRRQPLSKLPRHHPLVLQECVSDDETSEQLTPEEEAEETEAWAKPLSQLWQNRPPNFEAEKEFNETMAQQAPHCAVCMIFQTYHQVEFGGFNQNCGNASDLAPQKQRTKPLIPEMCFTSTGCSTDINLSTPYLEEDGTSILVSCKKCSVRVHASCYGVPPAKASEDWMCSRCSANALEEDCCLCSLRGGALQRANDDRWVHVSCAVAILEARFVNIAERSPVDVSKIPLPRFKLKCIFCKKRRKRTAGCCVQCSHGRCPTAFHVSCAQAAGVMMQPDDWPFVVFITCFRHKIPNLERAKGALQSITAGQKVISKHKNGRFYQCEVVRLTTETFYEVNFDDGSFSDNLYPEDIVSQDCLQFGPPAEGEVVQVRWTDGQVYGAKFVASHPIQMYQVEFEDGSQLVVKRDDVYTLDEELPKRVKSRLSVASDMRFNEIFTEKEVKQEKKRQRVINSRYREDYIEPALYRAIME

JMJD2C = target: T2, JMJD2C (Homo sapiens, UniProt Q9H3R0); assay: Histone demethylase inhibition assay, JMJD2C; type: biochemical; settings: in vitro; compared with JMJD1A
T2 sequence (Q9H3R0 1-1056): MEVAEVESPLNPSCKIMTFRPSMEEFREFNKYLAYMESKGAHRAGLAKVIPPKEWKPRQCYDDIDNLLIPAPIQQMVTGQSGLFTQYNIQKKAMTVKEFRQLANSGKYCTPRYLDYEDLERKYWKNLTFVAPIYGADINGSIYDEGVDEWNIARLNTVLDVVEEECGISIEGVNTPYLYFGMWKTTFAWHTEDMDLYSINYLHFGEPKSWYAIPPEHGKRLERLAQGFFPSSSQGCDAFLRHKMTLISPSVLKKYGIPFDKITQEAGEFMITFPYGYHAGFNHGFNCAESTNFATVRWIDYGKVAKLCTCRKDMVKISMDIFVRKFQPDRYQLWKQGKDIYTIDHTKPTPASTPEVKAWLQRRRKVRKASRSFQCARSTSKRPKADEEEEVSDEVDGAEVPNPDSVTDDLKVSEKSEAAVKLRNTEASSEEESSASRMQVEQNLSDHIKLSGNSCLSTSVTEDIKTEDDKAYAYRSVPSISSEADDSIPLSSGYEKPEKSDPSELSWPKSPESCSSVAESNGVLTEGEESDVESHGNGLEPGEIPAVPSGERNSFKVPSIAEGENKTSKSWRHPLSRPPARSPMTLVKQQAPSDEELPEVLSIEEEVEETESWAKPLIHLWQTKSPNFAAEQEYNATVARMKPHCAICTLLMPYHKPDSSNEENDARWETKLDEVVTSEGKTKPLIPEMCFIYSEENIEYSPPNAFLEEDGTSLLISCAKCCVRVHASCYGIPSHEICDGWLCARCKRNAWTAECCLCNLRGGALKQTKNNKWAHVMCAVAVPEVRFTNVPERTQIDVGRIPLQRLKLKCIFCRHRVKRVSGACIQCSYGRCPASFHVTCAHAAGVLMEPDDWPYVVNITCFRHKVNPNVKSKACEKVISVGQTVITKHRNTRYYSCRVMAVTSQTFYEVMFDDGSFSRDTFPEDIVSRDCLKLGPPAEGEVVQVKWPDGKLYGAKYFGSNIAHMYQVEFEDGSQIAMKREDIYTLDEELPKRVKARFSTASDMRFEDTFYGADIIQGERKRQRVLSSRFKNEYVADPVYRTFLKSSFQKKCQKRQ

Inhibition of other histone demethylases (JARID1A), concentration in words (JARID1A) | Inhibition of other histone demethylases (JMJD2A), concentration in words (JMJD2A) | Inhibition of other histone demethylases (JMJD2C), concentration in words (JMJD2C) | Structure (SMILES) | Reduction of cell invasion through Matrigel (BE(2)-C cells [1]) | Cell proliferation (viable cells, Alamar blue) (BE(2)-C cells [2]) | MALAT1 gene expression (MALAT1) | Increase in area of remaining wounds (BE(2)-C cells [3]; 32 hours after removal of inserts) | Increase in area of remaining wounds (BE(2)-C cells [3]; 48 hours after removal of inserts) [%]
 |  |  | COC(=O)CNC(=O)C(=O)OC [DMOG] | approximately 52% | no effect | reduced | approximately 47% | ~895
much higher concentrations | much higher concentrations | much higher concentrations | O=C(O)CNC(=O)C(=O)O [NOG, N-oxalylglycine] |  |  |  |  | 
